Experimental findings from US20030224422A1, “Pre-and post therapy gene expression profiling to identify drug targets” (St. Jude Children's Research Hospital, Inc., priority 2002, published 2003) are described below.

This assay concerns bone marrow leukemic blasts obtained from children with ALL. Nature of the assay: Oligonucleotide microarray (Affymetrix HG-U95A) fold-change in gene expression, post-treatment vs diagnosis, in patients in vivo. The following applies: for number of genes that were down-regulated after single agent / number of genes that were up-regulated (increased) after single agent: changed by >50% in over 70% of patients; for number of genes that changed expression by at least 50%: in over 70% of patients treated. On the set-up: species or system human. As for the experimental part: To elucidate genomic determinants of leukemia response to chemotherapy, oligonucleotide microarrays (Affymetrix® HG-U95A GeneChip) were used to analyze expression of approximately 9,600 human genes in bone marrow leukemic blasts obtained from children with ALL, at diagnosis and one day post-treatment with mercaptopurine (1 gm/^2 IV) or methotrexate (MTX) given alone (1 gm/m^2 IV), or mercaptopurine (6-MP) in combination with either low-dose MTX [180 mg/m^2 orally] or high-dose MTX [[…]]). A stratified (immunophenotype, DNA ploidy) randomization was used to assign treatment, and the fold-change in gene expression (post-treatment to diagnosis) was computed for 60 patients. Using linear discriminate analysis with variance (LDAV) genes that most discriminated among treatments were selected based on expression changes (fold-change from diagnosis to post-treatment) or based on post-treatment expression levels alone. […] Leave-one-out cross-validation using support-vector-machine (SVM), based on the 120 most discriminating genes, correctly classified 60 out of 60 patients (100%) based on fold-change versus 58 out of 60 (96.7%) using only post-treatment expression profiles. The smallest number of genes for discrimination among treatments was 120 using fold-change, which included genes involved in cellular processes such as apoptosis, cell cycle control and stress response. Together, these in vivo data reveal unique, treatment-specific changes in gene expression in primary leukemia cells, establishing that changes in expression differ according to the specific medication, dosage and combination given. These findings provide new insights to cancer cell responses to chemotherapy and can be used to illuminate mechanisms of leukemia resistance and identify novel targets to augment existing treatment modalities.
Primary leukemia cells. This study included 60 patients with ALL enrolled on St. Jude Children's Research Hospital Total Therapy Studies XIIIB and XV. Bone marrow samples were obtained at diagnosis (pre-treatment) and one day post-treatment with mercaptopurine (6-MP) or methotrexate (MTX) given alone, or mercaptopurine in combination with either low-dose MTX (LDMTX/6-MP) or high-dose MTX (HDMTX/6-MP). A stratified (immunophenotype, DNA ploidy) randomization was used to assign treatment. Total RNA was extracted from cryopreserved mononuclear cell suspensions with TriReagent (MRC, Cincinnati, Ohio).
Mircoarray analysis. High quality RNA was hybridized to Affymetrix HG-U95A GeneChipe (12,600 probe sets, ˜9,600 human genes) according to the manufacturers protocol (Affymetrix, Santa Clara, Calif.). Scaled gene expression values for pre-treatment, post-treatment and fold-change (post-treatment vs. pre-treatment ratio) were calculated using Affymetrix Microarray Suite® (MAS) 5.0.
Gene expression data analysis. Analysis was done on fold-change and on post-treatment expression. The data were log-transformed and probe sets were filtered out if “absent” in all 120 arrays or if “no change” in all 60 fold-change ratios. Principal component analysis (PCA) and 2D-hierarchical clustering was performed using GeneMath 1.5 (AppliedMaths, Belgium). We applied supervised methods to find the most discriminating genes, including Linear Discriminant Analysis with Variance (LDAV) (GeneMaths) and ANOVA. Probe sets were ranked according to their discriminating power. To establish that these genes could classify treatments and to find significant genes, leave-one-out cross-validation was performed by support vector machine (SVM) with the top ranked probe sets. […] The p-value is defined as the probability of observing a misclassification rate less or equal to that in the experimental data. 250 permutations were performed. To distinguish one treatment from the other treatments, distinction calculation (Spotfire 6.3, Somerville, Mass.) was performed for each probe set. Permutations (n=1000) were performed to obtain the p-values. […]

SMILES strings stand for the structures.

For the compound `CN(Cc1cnc2nc(N)nc(N)c2n1)c1ccc(C(=O)N[C@@H](CCC(=O)O)C(=O)O)cc1` [HDMTX, Methotrexate], the “number of genes that were down-regulated after single agent” value was 59 genes, the “number of genes that were up-regulated (increased) after single agent” value was 38 genes and the “number of genes that changed expression by at least 50%” value came out at 97 genes. The “difference in gene expression between infusion for 24 h and infusion for 4 h” value (HDMTX 24 h vs 4 h infusion, data pooled) was “No difference”.
Regarding `S=c1nc[nH]c2nc[nH]c12` [MP, Mercaptopurine], the “number of genes that were down-regulated after single agent” value was found to be 40 genes, the “number of genes that were up-regulated (increased) after single agent” value is reported as 158 genes and the “number of genes that changed expression by at least 50%” value turned out to be 197 genes.
